According to PubChem BioAssay AID1963984 (Molecular Pharmacology Branch, DTP, NCI, 2024):

System: 233499-124-R-J3-PDC spheroids with HUVEC/MSC, viability
Experiment: Anticancer human tumor 233499-124-R-J3-PDC patient-derived colon adenocarcinoma cell line growth inhibition [PI3K]
Conditions: for viability, T/C: stronger effect = lower value; active means viability on the fitted dose curve at most 10% of control; inactive means the rest
In short: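 We assembled tumor spheroids that included a stromal compartment of HUVEC and MSCs, then exposed them to targeted agents alone and together with PI3K pathway inhibitors. Concentration series descended by half-log from clinically achievable Cmax levels. Viability served as the endpoint.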

[1] = curve of first compound, second compound 0.0316 µM
[2] = curve of first compound, second compound 0.1 µM
[3] = curve of first compound, second compound 0.316 µM
[4] = curve of first compound, second compound 1 µM
[5] = second compound 0.0316 µM, first compound 0.0316 µM
[6] = second compound 0.0316 µM, first compound 0.1 µM
[7] = second compound 0.0316 µM, first compound 0.316 µM
[8] = second compound 0.0316 µM, first compound 1 µM
[9] = second compound 0.0316 µM, first compound 3.16 µM
[10] = second compound 0.0316 µM, first compound 10 µM
[11] = second compound 0.1 µM, first compound 0.0316 µM
[12] = second compound 0.1 µM, first compound 0.1 µM
[13] = second compound 0.1 µM, first compound 0.316 µM
[14] = second compound 0.1 µM, first compound 1 µM
[15] = second compound 0.1 µM, first compound 3.16 µM
[16] = second compound 0.1 µM, first compound 10 µM
[17] = second compound 0.316 µM, first compound 0.0316 µM
[18] = second compound 0.316 µM, first compound 0.1 µM
[19] = second compound 0.316 µM, first compound 0.316 µM
[20] = second compound 0.316 µM, first compound 1 µM
[21] = second compound 0.316 µM, first compound 3.16 µM
[22] = second compound 0.316 µM, first compound 10 µM
[23] = second compound 1 µM, first compound 0.0316 µM
[24] = second compound 1 µM, first compound 0.1 µM
[25] = second compound 1 µM, first compound 0.316 µM
[26] = second compound 1 µM, first compound 1 µM
[27] = second compound 1 µM, first compound 3.16 µM
[28] = second compound 1 µM, first compound 10 µM
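Further: spheroids exposed to agents for seven days before readout.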
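Wherever viability, T/C is given: percent viability relative to DMSO vehicle control taken as 100%.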

Cn1ncc(Cl)c1-c1cc(C(=O)NC(CN)Cc2cccc(F)c2)sc1Cl (centres undefined) + CC(Nc1ncnc2nc[nH]c12)c1cc2cccc(Cl)c2c(=O)n1-c1ccccc1
5.24 µM: IC50 (curve of first compound, second compound 3.16 µM)
4.73 µM: IC50 [2]
5.3 µM: IC50 (curve of first compound, second compound 10 µM)
inactive: viability, T/C [5] 70.5% | viability, T/C [6] 105% | viability, T/C [7] 60.3% | viability, T/C [8] 91.5% | viability, T/C [9] 50.2% | viability, T/C [10] 26.3% | viability, T/C [11] 86.4% | viability, T/C [12] 108% | viability, T/C [13] 94.2% | viability, T/C [14] 58.2% | viability, T/C [15] 75.7% | viability, T/C [16] 24.7% | viability, T/C [17] 115% | viability, T/C [18] 107% | viability, T/C [19] 70.6% | viability, T/C [20] 62.7% | viability, T/C [21] 63.6% | viability, T/C [22] 28.7% | viability, T/C [23] 94.8% | viability, T/C [24] 90.9% | viability, T/C [25] 86.1% | viability, T/C [26] 73.5% | viability, T/C [27] 59.6% | viability, T/C [28] 24.6% | viability, T/C (second compound 3.16 µM, first compound 0.0316 µM) 97% | viability, T/C (second compound 3.16 µM, first compound 0.1 µM) 98.6% | viability, T/C (second compound 3.16 µM, first compound 0.316 µM) 79.1% | viability, T/C (second compound 3.16 µM, first compound 1 µM) 106% | viability, T/C (second compound 3.16 µM, first compound 3.16 µM) 64.5% | viability, T/C (second compound 3.16 µM, first compound 10 µM) 31.5% | viability, T/C (second compound 10 µM, first compound 0.0316 µM) 94.8% | viability, T/C (second compound 10 µM, first compound 0.1 µM) 92% | viability, T/C (second compound 10 µM, first compound 0.316 µM) 108% | viability, T/C (second compound 10 µM, first compound 1 µM) 65.2% | viability, T/C (second compound 10 µM, first compound 3.16 µM) 69.6% | viability, T/C (second compound 10 µM, first compound 10 µM) 32.4%
3.2 µM: IC50 [1]
4.11 µM: IC50 [4]
3.13 µM: IC50 [3]

C=CC(=O)N1CCN(c2nc(=O)n(-c3c(C)ccnc3C(C)C)c3nc(-c4c(O)cccc4F)c(F)cc23)C(C)C1 (centres undefined) + COc1c(OCCCN2CCOCC2)ccc2c3n(c(=NC(=O)c4cnc(N)nc4)nc12)CCN3
> 10 µM: IC50 (curve of first compound, second compound 0.00316 µM) | IC50 (curve of first compound, second compound 0.01 µM) | IC50 [1] | IC50 [2]
< 0.0316 µM: IC50 [3] | IC50 [4]
inactive: viability, T/C (second compound 0.00316 µM, first compound 0.0316 µM) 98.1% | viability, T/C (second compound 0.00316 µM, first compound 0.1 µM) 103% | viability, T/C (second compound 0.00316 µM, first compound 0.316 µM) 87.8% | viability, T/C (second compound 0.00316 µM, first compound 1 µM) 97.7% | viability, T/C (second compound 0.00316 µM, first compound 3.16 µM) 88.4% | viability, T/C (second compound 0.00316 µM, first compound 10 µM) 119% | viability, T/C (second compound 0.01 µM, first compound 0.0316 µM) 109% | viability, T/C (second compound 0.01 µM, first compound 0.1 µM) 101% | viability, T/C (second compound 0.01 µM, first compound 0.316 µM) 85.5% | viability, T/C (second compound 0.01 µM, first compound 1 µM) 86.5% | viability, T/C (second compound 0.01 µM, first compound 3.16 µM) 84.6% | viability, T/C (second compound 0.01 µM, first compound 10 µM) 113% | viability, T/C [5] 94.1% | viability, T/C [6] 98.3% | viability, T/C [7] 85.3% | viability, T/C [8] 95.6% | viability, T/C [9] 103% | viability, T/C [10] 92.5% | viability, T/C [11] 101% | viability, T/C [12] 73.4% | viability, T/C [13] 88% | viability, T/C [14] 58.9% | viability, T/C [15] 67.6% | viability, T/C [16] 82% | viability, T/C [17] 46.3% | viability, T/C [18] 39.4% | viability, T/C [19] 33.1% | viability, T/C [20] 36.4% | viability, T/C [21] 43.7% | viability, T/C [22] 36% | viability, T/C [23] 10% | viability, T/C [24] 7.27% | viability, T/C [25] 12.6% | viability, T/C [26] 6.71% | viability, T/C [27] 15.8% | viability, T/C [28] 7.62%

COc1c(OCCCN2CCOCC2)ccc2c3n(c(=NC(=O)c4cnc(N)nc4)nc12)CCN3
inactive: viability, T/C (compound 0.01 µM) 84.7% [middle of 8 runs] | viability, T/C (compound 0.0316 µM) 93.6% [middle of 8 runs] | viability, T/C (compound 0.316 µM) 31.3% [middle of 8 runs]
11.8% [middle of 8 runs]: viability, T/C (compound 1 µM)
185 nM [middle of 8 runs]: IC50 (compound alone, run of 05/09/2023)
